Results as given in patent publication US8617555B2, “Pharmaceutical compositions comprising activated-potentiated antibodies to human insulin receptor and endothelial nitric oxide (NO) synthase” (priority 2010, dated 2013).

Tests used:
[1] = test system: rats with streptozotocin-induced diabetes mellitus; test: Fasting blood plasma glucose level in rats with streptozotocin-induced diabetes mellitus; type: in vivo, Wistar rats; conditions: STZ rats
Protocol: In the study, 150 male Wistar were used (weight at beginning of study 250-300 g, age 3.5-4 months). 10 rats were intact. The rest were intravenously injected with streptozotocin at the dose of 50 mg/kg (experimental model of diabetes mellitus). […] Intact rats received distilled water in the same volume. On days 7, 14 and 21 of injection of preparations in rats, fasting blood plasma glucose level measured with enzymatic method (glucose oxidase method) with utilization of “glucose FKD” kits (Russia).

[2] = test system: rats with streptozotocin-induced diabetes mellitus; test: Oral glucose tolerance test (OGTT) on day 14 in rats with streptozotocin-induced diabetes mellitus; type: in vivo, Wistar rats; conditions: STZ rats; day 14 of injection; glucose 1 g/kg per os; administered alone
Protocol: The rats were starving at water for 18 hours. 60 min before the test they were last given test substances. Intact rats received distilled water in the same volume. Glucose was administered per os 50% w/w water glucose solution (1 g/kg of rat weight). Serum glucose of blood sample from tail vein was measured by using “Glucose FKD” kit (OOO “Pharamaceutical and clinical diagnostics, Russia) at 0, 30, 60, 90, 120 min. Mean area under the curve (AUC) concentration of blood glucose over time was calculated.

Compound	decrease in glucose level versus control ([1]; day 14 of the experiment, p<0.05 versus control) [%]	effect on blood plasma glucose level (in words) ([1]; all observation periods, 1/2 of the effective dose, glucose measured 1 hour after injection)	glucose tolerance, area under concentration-time curve (AUC) in OGTT (in words) [2]
CN(CCOc1ccc(CC2SC(=O)NC2=O)cc1)c1ccccn1 (stereo not drawn) [Rosiglitazone]	36		
insulin: short-acting insulin, 8 units/kg/day subcutaneously, 1/2 of the effective dose		down to the level of the intact control	most effectively increased glucose tolerance
